System: MMP-2
Assay: active MMP-2
Conditions: human, room temperature, up to 6 h

## Ac-KKYGPQGIAGQYKK-NH2
  cleaved bond: G-I, 6 h

## Ac-KKYIPVSLRSGYKK-NH2
  cleaved bond: S-L, 6 h
